The target of assay [1] is T1, Beta-2 adrenergic receptor (Rattus norvegicus, UniProt P10608).
Description: In vitro beta-adrenergic activity against beta-1 adrenergic receptor by the inhibition of insulin stimulated [14C]- glucose incorporation into glycogen in isolated rat soleus muscle
Assay [2] concerns the target Beta-3 adrenergic receptor (Rattus norvegicus, UniProt P26255). As to the kind of experiment: In vitro beta-adrenergic activity against beta-3 adrenergic receptor in rat epididymal fat pads by stimulation of glycerol release from adipocytes. It is filed as functional, tissue-based, Epididymal fat pad.
For assay [3], the target named is T1, Beta-2 adrenergic receptor. The assay can be described thus: Compound was evaluated for its binding affinity towards Beta-2 adrenergic receptor in rat soleus membrane by displacing […]. It counts as cell membranes.
The target in assay [4] is Beta-1 adrenergic receptor (Rattus norvegicus, UniProt P18090). As to the kind of experiment: Compound was evaluated for its binding affinity towards Beta-1 adrenergic receptor in rat heart membrane by displacing [125I]- iodocyanopindolol. It is filed as cell membranes.
Beta-1 adrenergic receptor, sequence (P18090 whole entry): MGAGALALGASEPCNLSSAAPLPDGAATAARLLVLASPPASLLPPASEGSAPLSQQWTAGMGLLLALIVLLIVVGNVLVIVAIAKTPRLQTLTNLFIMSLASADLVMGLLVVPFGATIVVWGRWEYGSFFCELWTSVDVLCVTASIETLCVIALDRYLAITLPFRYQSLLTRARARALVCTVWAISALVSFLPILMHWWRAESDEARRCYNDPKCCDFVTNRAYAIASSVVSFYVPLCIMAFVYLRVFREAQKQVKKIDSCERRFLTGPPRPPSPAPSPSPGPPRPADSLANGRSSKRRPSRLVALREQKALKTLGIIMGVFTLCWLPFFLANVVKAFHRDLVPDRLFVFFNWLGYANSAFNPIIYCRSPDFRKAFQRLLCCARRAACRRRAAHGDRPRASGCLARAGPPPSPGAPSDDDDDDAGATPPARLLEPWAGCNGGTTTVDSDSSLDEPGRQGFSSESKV

SMILES strings stand for the structures.

A word on the IC50: it is the concentration needed to halve the response being measured. Lower therefore signals greater potency. In general, EC50 refers to the concentration needed to bring the measured effect to its halfway point. Low values mean a more potent agent, high ones a less potent agent.

T1 sequence (P10608 whole entry): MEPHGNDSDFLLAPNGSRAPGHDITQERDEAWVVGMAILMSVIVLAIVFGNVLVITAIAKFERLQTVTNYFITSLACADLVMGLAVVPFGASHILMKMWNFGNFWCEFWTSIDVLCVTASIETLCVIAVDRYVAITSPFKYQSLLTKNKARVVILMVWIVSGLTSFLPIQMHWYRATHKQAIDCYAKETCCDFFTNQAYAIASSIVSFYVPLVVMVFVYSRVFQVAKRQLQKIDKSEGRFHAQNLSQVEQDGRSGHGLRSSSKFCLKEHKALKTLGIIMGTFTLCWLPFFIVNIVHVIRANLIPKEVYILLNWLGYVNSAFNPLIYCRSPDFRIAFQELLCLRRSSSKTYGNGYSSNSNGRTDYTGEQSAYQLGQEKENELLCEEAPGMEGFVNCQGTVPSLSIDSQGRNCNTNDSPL
Beta-3 adrenergic receptor, sequence (P26255 whole entry): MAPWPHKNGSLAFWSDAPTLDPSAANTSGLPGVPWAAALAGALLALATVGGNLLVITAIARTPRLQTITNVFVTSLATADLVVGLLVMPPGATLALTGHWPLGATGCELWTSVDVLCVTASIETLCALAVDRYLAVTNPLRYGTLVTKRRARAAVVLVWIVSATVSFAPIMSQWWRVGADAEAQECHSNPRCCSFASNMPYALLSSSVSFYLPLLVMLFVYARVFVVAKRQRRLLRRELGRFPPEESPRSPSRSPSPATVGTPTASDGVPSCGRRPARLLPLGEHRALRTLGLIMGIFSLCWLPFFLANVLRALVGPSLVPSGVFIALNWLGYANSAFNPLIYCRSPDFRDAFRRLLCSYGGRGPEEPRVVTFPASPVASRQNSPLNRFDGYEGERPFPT

For `COC(=O)COc1ccc(C[C@@H](C)NC[C@H](O)c2cccc(Cl)c2)cc1`, the IC50 in assay [1] came to 500 nM; in assay [3], 30 nM; in assay [4], 59 nM. For the same compound, the EC50 in assay [2] turned out to be 16 nM.

Turning to `C[C@H](Cc1ccc(OCC(=O)O)cc1)NC[C@H](O)c1cccc(Cl)c1`, the IC50 is 190 nM in assay [1] and 1300 nM in assay [3].

(Values after ChEMBL document CHEMBL1125527, “Disodium (R,R)-5-[2-[[2-(3-chlorophenyl)-2-hydroxyethyl]-amino] propyl]-1,3-benzodioxole-2,2-dicarboxylate (CL 316,243). A potent beta-adrenergic agonist virtually specific for beta 3 receptors. A promising antidiabetic and antiobesity agent” (J Med Chem, 1992).)
